# Reference: patent publication US20040141914A1, “Cancerous disease modifying antibodies” (priority 2003, published 2004)
# How the values were obtained:
# MCF-7 = tested on: MCF-7; design: key to the marks not given beside the values
# OVCAR = tested on: OVCAR; design: key to the marks not given beside the values
# PC-3 = tested on: PC-3; design: key to the marks not given beside the values
# MB-468 = tested on: MB-468; design: key to the marks not given beside the values
# [1] = Live/Dead cytotoxicity assay, hybridoma supernatant; settings: human
# NCI H460 = tested on: NCI H460; design: key to the marks not given beside the values
# HT-29 = tested on: HT-29; design: key to the marks not given beside the values
# MB-231 = tested on: MB-231; design: key to the marks not given beside the values
compound,measurement,setting,value
C[C@@H]1C[C@@H]([C@H](O)CC2CC(=O)NC(=O)C2)C(=O)[C@@H](C)C1 [Cycloheximide],"cytotoxicity, experiments greater than threshold, MCF-7",MCF-7,+++
same,"cytotoxicity, experiments greater than threshold, OVCAR",OVCAR,+++
same,"cytotoxicity, experiments greater than threshold, PC-3",PC-3,+++
same,"cytotoxicity, experiments greater than threshold, MB-468",MB-468,+++
same,cytotoxicity at 5 days,[1],17%
same,"cytotoxicity, experiments greater than threshold, NCI H460",NCI H460,+++
same,"cytotoxicity, experiments greater than threshold, HT-29",HT-29,+++
same,"cytotoxicity, experiments greater than threshold, MB-231",MB-231,+++
